Source: patent US20260285850A1, “SUBSTITUTED OXAZOLIDINONES AND IMIDAZOLINONES AS HERBICIDES” (FMC CORPORATION, priority 2023, published 2026)

Legend:
Assay type in all cases: in vivo
[1] = system: kochia (Bassia scoparia); assay: Test A preemergence soil spray, visual injury rating 0-100; details: 10 days, 0 = no effect, 100 = complete control; for Kochia plant response rating (0-100): 31 g ai/ha; for Kochia plant response rating (0 to 100 scale): 125 g ai/ha
In short: (§1)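 Preemergence directed soil spray or postemergence spray (2-10 cm, 1-2 leaf); loam/sand mix; compound in non-phytotoxic solvent + surfactant. Greenhouse, 10 d. Visual injury vs untreated, 0 = none, 100 = complete control.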

[2] = system: blackgrass (Alopecurus myosuroides); assay: as above; details: 10 days, 0 = no effect, 100 = complete control; for Blackgrass plant response rating (0-100): 31 g ai/ha; for Blackgrass plant response rating (0 to 100 scale): 125 g ai/ha
In short: as §1

[3] = system: wheat (Triticum aestivum); assay: as above; details: 10 days, 0 = no effect, 100 = complete control; for Wheat plant response rating (0-100): 31 g ai/ha; for Wheat plant response rating (0 to 100 scale): 125 g ai/ha
In short: as §1

[4] = system: ryegrass, Italian (italian ryegrass, Lolium multiflorum); assay: as above; details: 10 days, 0 = no effect, 100 = complete control; for Ryegrass, Italian plant response rating (0-100): 31 g ai/ha; for Ryegrass, Italian plant response rating (0 to 100 scale): 125 g ai/ha
In short: as §1

[5] = system: palmer (palmer amaranth, palmer pigweed, Amaranthus palmeri); assay: as above; details: 10 days, 0 = no effect, 100 = complete control; for Amaranth, Palmer plant response rating (0-100): 31 g ai/ha; for Amaranth, Palmer plant response rating (0 to 100 scale): 125 g ai/ha
In short: as §1

[6] = system: corn (Zea mays); assay: as above; details: 10 days, 0 = no effect, 100 = complete control; for Corn plant response rating (0-100): 31 g ai/ha; for Corn plant response rating (0 to 100 scale): 125 g ai/ha
In short: as §1

[7] = system: oat, wild (wild oat, Avena fatua); assay: as above; details: 10 days, 0 = no effect, 100 = complete control; for Oat, Wild plant response rating (0-100): 31 g ai/ha; for Oat, Wild plant response rating (0 to 100 scale): 125 g ai/ha
In short: as §1

[8] = system: soybean (Glycine max); assay: as above; details: 10 days, 0 = no effect, 100 = complete control; for Soybean plant response rating (0-100): 31 g ai/ha; for Soybean plant response rating (0 to 100 scale): 125 g ai/ha
In short: as §1

[9] = system: ragweed (common ragweed, Ambrosia artemisiifolia); assay: as above; details: 10 days, 0 = no effect, 100 = complete control; for Ragweed plant response rating (0-100): 31 g ai/ha; for Ragweed plant response rating (0 to 100 scale): 125 g ai/ha
In short: as §1

[10] = system: barnyardgrass (Echinochloa crus-galli); assay: as above; details: 10 days, 0 = no effect, 100 = complete control; for Barnyardgrass plant response rating (0-100): 31 g ai/ha; for Barnyardgrass plant response rating (0 to 100 scale): 125 g ai/ha
In short: as §1

[11] = system: green foxtail (Setaria viridis); assay: as above; details: 10 days, 0 = no effect, 100 = complete control; for Foxtail, Green plant response rating (0-100): 31 g ai/ha; for Foxtail, Green plant response rating (0 to 100 scale): 125 g ai/ha
In short: as §1

[12] = system: galium (catchweed bedstraw, Galium aparine); assay: Test A postemergence application, visual injury rating 0-100; details: for Galium plant response rating (0 to 100 scale): Postemergence
In short: as §1

[13] = system: kochia (Bassia scoparia); assay: as above; details: for Kochia plant response rating (0 to 100 scale): Postemergence
In short: as §1

[14] = system: blackgrass (Alopecurus myosuroides); assay: as above; details: for Blackgrass plant response rating (0 to 100 scale): Postemergence
In short: as §1

[15] = system: wheat (Triticum aestivum); assay: as above; details: for Wheat plant response rating (0 to 100 scale): Postemergence
In short: as §1

[16] = system: ryegrass, Italian (italian ryegrass, Lolium multiflorum); assay: as above; details: for Ryegrass, Italian plant response rating (0 to 100 scale): Postemergence
In short: as §1

[17] = system: palmer (palmer amaranth, palmer pigweed, Amaranthus palmeri); assay: as above; details: for Amaranth, Palmer / Pigweed, Palmer plant response rating (0 to 100 scale): Postemergence
In short: as §1

[18] = system: corn (Zea mays); assay: as above; details: for Corn plant response rating (0 to 100 scale): Postemergence
In short: as §1

[19] = system: oat, wild (wild oat, Avena fatua); assay: as above; details: for Oat, Wild plant response rating (0 to 100 scale): Postemergence
In short: as §1

[20] = system: soybean (Glycine max); assay: as above; details: for Soybean plant response rating (0 to 100 scale): Postemergence
In short: as §1

[21] = system: ragweed (common ragweed, Ambrosia artemisiifolia); assay: as above; details: for Ragweed plant response rating (0 to 100 scale): Postemergence
In short: as §1

[22] = system: barnyardgrass (Echinochloa crus-galli); assay: as above; details: for Barnyardgrass plant response rating (0 to 100 scale): Postemergence
In short: as §1

[23] = system: green foxtail (Setaria viridis); assay: as above; details: for Foxtail, Green plant response rating (0 to 100 scale): Postemergence
In short: as §1

[24] = system: horseweed (Erigeron canadensis); assay: as above; details: for Horseweed plant response rating (0 to 100 scale): Postemergence
In short: as §1

[25] = system: ducksalad (Heteranthera limosa); assay: Test B flooded paddy test, visual plant response rating 0-100; details: 250 g ai/ha, Flood, applied to paddy water, evaluated after 13 days
In short: (§2)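 Each species was raised to two leaves before flooding to a 3 cm depth and dosing the water with compound. Injury was assessed by eye after 13 days under greenhouse conditions.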

[26] = system: barnyardgrass (Echinochloa crusgalli); assay: as above; details: 250 g ai/ha, Flood, applied to paddy water, evaluated after 13 days
In short: as §2

[27] = system: sedge, umbrella (small-flower umbrella sedge, Cyperus difformis); assay: as above; details: 250 g ai/ha, Flood, applied to paddy water, evaluated after 13 days
In short: as §2

[28] = system: rice (Oryza sativa); assay: as above; details: 250 g ai/ha, Flood, applied to paddy water, evaluated after 13 days
In short: as §2

[29] = 31 g ai/ha, postemergence, 10 days, 0 = no effect, 100 = complete control
[30] = 125 g ai/ha, 10 days, 0 is no effect, 100 is complete control
[31] = 31 g ai/ha, greenhouse 10 days, 0 no effect, 100 complete control

CC1(C(=O)NC2C=CC(C(=O)O)C2)CN(c2cc(Cl)cc(Cl)c2)C(=O)O1 (centres unmarked) [Compound 62]
Kochia plant response rating (0-100) [1]: 30 | Kochia plant response rating (0 to 100 scale) [1]: 90 | Blackgrass plant response rating (0-100) [2]: 30 | Blackgrass plant response rating (0 to 100 scale) [2]: 70 | Wheat plant response rating (0-100) [3]: 80 | Wheat plant response rating (0 to 100 scale) [3]: 90 | Ryegrass, Italian plant response rating (0-100) [4]: 60 | Ryegrass, Italian plant response rating (0 to 100 scale) [4]: 80 | Amaranth, Palmer plant response rating (0-100) [5]: 90 | Amaranth, Palmer plant response rating (0 to 100 scale) [5]: 100 | Corn plant response rating (0-100) [6]: 30 | Corn plant response rating (0 to 100 scale) [6]: 80 | Oat, Wild plant response rating (0-100) [7]: 40 | Oat, Wild plant response rating (0 to 100 scale) [7]: 70 | Soybean plant response rating (0-100) [8]: 0 | Soybean plant response rating (0 to 100 scale) [8]: 60 | Ragweed plant response rating (0-100) [9]: 30 | Ragweed plant response rating (0 to 100 scale) [9]: 20 | Barnyardgrass plant response rating (0-100) [10]: 80 | Barnyardgrass plant response rating (0 to 100 scale) [10]: 100 | Foxtail, Green plant response rating (0-100) [11]: 80 | Foxtail, Green plant response rating (0 to 100 scale) [11]: 90 | Galium plant response rating (0-100) [12, 29]: 80 | Galium plant response rating (0 to 100 scale) [12, 30]: 80 | Kochia plant response rating (0-100) [13, 29]: 70 | Kochia plant response rating (0 to 100 scale) [13, 30]: 80 | Blackgrass plant response rating (0-100) [14, 29]: 90 | Blackgrass plant response rating (0 to 100 scale) [14, 30]: 100 | Wheat plant response rating (0-100) [15, 29]: 90 | Wheat plant response rating (0 to 100 scale) [15, 30]: 90 | Ryegrass, Italian plant response rating (0-100) [16, 29]: 90 | Ryegrass, Italian plant response rating (0 to 100 scale) [16, 30]: 100 | Amaranth, Palmer plant response rating (0-100) [17, 29]: 90 | Amaranth, Palmer / Pigweed, Palmer plant response rating (0 to 100 scale) [17, 30]: 90 | Corn plant response rating (0-100) [18, 29]: 100 | Corn plant response rating (0 to 100 scale) [18, 30]: 100 | Oat, Wild plant response rating (0-100) [19, 29]: 90 | Oat, Wild plant response rating (0 to 100 scale) [19, 30]: 90 | Soybean plant response rating (0-100) [20, 29]: 80 | Soybean plant response rating (0 to 100 scale) [20, 30]: 90 | Ragweed plant response rating (0-100) [21, 29]: 40 | Ragweed plant response rating (0 to 100 scale) [21, 30]: 90 | Barnyardgrass plant response rating (0-100) [22, 29]: 100 | Barnyardgrass plant response rating (0 to 100 scale) [22, 30]: 100 | Foxtail, Green plant response rating (0-100) [23, 29]: 90 | Foxtail, Green plant response rating (0 to 100 scale) [23, 30]: 90 | Horseweed plant response rating (0-100) [24, 29]: 50 | Horseweed plant response rating (0 to 100 scale) [24, 30]: 70 | Plant response rating, Ducksalad (0 to 100 scale, 0 is no effect and 100 is complete control) [25]: 90 | Plant response rating, Barnyardgrass (0 to 100 scale, 0 is no effect and 100 is complete control) [26]: 50 | Plant response rating, Sedge, Umbrella (0 to 100 scale, 0 is no effect and 100 is complete control) [27]: 98 | Plant response rating, Rice (0 to 100 scale, 0 is no effect and 100 is complete control) [28]: 15

CC1(C(=O)NC2C=CC(C(=O)OCC(F)(F)F)C2)CN(c2cc(Cl)cc(Cl)c2)C(=O)O1 (centres unmarked) [Compound 64]
Kochia plant response rating (0-100) [1]: 50 | Kochia plant response rating (0 to 100 scale) [1]: 90 | Blackgrass plant response rating (0-100) [2]: 20 | Blackgrass plant response rating (0 to 100 scale) [2]: 70 | Wheat plant response rating (0-100) [3]: 60 | Wheat plant response rating (0 to 100 scale) [3]: 90 | Ryegrass, Italian plant response rating (0-100) [4]: 50 | Ryegrass, Italian plant response rating (0 to 100 scale) [4]: 90 | Amaranth, Palmer plant response rating (0-100) [5]: 100 | Amaranth, Palmer plant response rating (0 to 100 scale) [5]: 100 | Corn plant response rating (0-100) [6]: 0 | Corn plant response rating (0 to 100 scale) [6]: 80 | Oat, Wild plant response rating (0-100) [7]: 20 | Oat, Wild plant response rating (0 to 100 scale) [7]: 50 | Soybean plant response rating (0-100) [8]: 0 | Soybean plant response rating (0 to 100 scale) [8]: 40 | Ragweed plant response rating (0-100) [9]: 0 | Ragweed plant response rating (0 to 100 scale) [9]: 80 | Barnyardgrass plant response rating (0-100) [10]: 80 | Barnyardgrass plant response rating (0 to 100 scale) [10]: 90 | Foxtail, Green plant response rating (0-100) [11]: 70 | Foxtail, Green plant response rating (0 to 100 scale) [11]: 90 | Galium plant response rating (0 to 100 scale) [12, 31]: 80 | Galium plant response rating (0 to 100 scale) [12, 30]: 80 | Kochia plant response rating (0 to 100 scale) [13, 31]: 80 | Kochia plant response rating (0 to 100 scale) [13, 30]: 80 | Blackgrass plant response rating (0 to 100 scale) [14, 31]: 90 | Blackgrass plant response rating (0 to 100 scale) [14, 30]: 90 | Wheat plant response rating (0 to 100 scale) [15, 31]: 90 | Wheat plant response rating (0 to 100 scale) [15, 30]: 90 | Ryegrass, Italian plant response rating (0 to 100 scale) [16, 31]: 80 | Ryegrass, Italian plant response rating (0 to 100 scale) [16, 30]: 90 | Amaranth, Palmer / Pigweed, Palmer plant response rating (0 to 100 scale) [17, 31]: 90 | Amaranth, Palmer / Pigweed, Palmer plant response rating (0 to 100 scale) [17, 30]: 90 | Corn plant response rating (0 to 100 scale) [18, 31]: 90 | Corn plant response rating (0 to 100 scale) [18, 30]: 100 | Oat, Wild plant response rating (0 to 100 scale) [19, 31]: 90 | Oat, Wild plant response rating (0 to 100 scale) [19, 30]: 90 | Soybean plant response rating (0 to 100 scale) [20, 31]: 80 | Soybean plant response rating (0 to 100 scale) [20, 30]: 90 | Ragweed plant response rating (0 to 100 scale) [21, 31]: 50 | Ragweed plant response rating (0 to 100 scale) [21, 30]: 80 | Barnyardgrass plant response rating (0 to 100 scale) [22, 31]: 100 | Barnyardgrass plant response rating (0 to 100 scale) [22, 30]: 100 | Foxtail, Green plant response rating (0 to 100 scale) [23, 31]: 90 | Foxtail, Green plant response rating (0 to 100 scale) [23, 30]: 90 | Horseweed plant response rating (0 to 100 scale) [24, 31]: 50 | Horseweed plant response rating (0 to 100 scale) [24, 30]: 80 | Plant response rating, Ducksalad (0 to 100 scale, 0 is no effect and 100 is complete control) [25]: 90 | Plant response rating, Barnyardgrass (0 to 100 scale, 0 is no effect and 100 is complete control) [26]: 50 | Plant response rating, Sedge, Umbrella (0 to 100 scale, 0 is no effect and 100 is complete control) [27]: 75 | Plant response rating, Rice (0 to 100 scale, 0 is no effect and 100 is complete control) [28]: 15
